Like-named read-outs stand apart in the source and are kept apart here.
How the values were obtained:
Type in all cases: in vivo
[1] = tested on: velvetleaf (Abutilon theophrasti); assay: Test A pre-/postemergence greenhouse herbicide test; conditions: Abutilon theophrasti, 240 h, 0 to 100 scale (0 no effect, 100 complete control), approx. 10 d, read-out: Plant response rating, Velvetleaf; for pest or weed control at 125 g/ha: 125 g ai/ha; for pest or weed control at 500 g/ha: 500 g ai/ha
In short: (§1)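 Greenhouse pot test, loam/sand soil. Pre: directed soil spray at seeding; post: foliar spray, 1–2 leaf, 2–10 cm height, same day. Read-out ~10 d: visual % control, 0–100 scale vs untreated.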

[2] = tested on: crabgrass, Large (large crabgrass, Digitaria sanguinalis); assay: as above; conditions: Digitaria sanguinalis, 240 h, 0 to 100 scale (0 no effect, 100 complete control), approx. 10 d, read-out: Plant response rating, Crabgrass, Large; for pest or weed control at 125 g/ha: 125 g ai/ha; for pest or weed control at 500 g/ha: 500 g ai/ha
In short: as §1

[3] = tested on: wheat (Triticum aestivum); assay: as above; conditions: Triticum aestivum, 240 h, 0 to 100 scale (0 no effect, 100 complete control), approx. 10 d, read-out: Plant response rating, Wheat; for plant injury at 125 g/ha: 125 g ai/ha; for plant injury at 500 g/ha: 500 g ai/ha
In short: as §1

[4] = tested on: barnyardgrass (Echinochloa crus-galli); assay: as above; conditions: Echinochloa crus-galli, 240 h, 0 to 100 scale (0 no effect, 100 complete control), approx. 10 d, read-out: Plant response rating, Barnyardgrass; for pest or weed control at 125 g/ha: 125 g ai/ha; for pest or weed control at 500 g/ha: 500 g ai/ha
In short: as §1

[5] = tested on: corn (Zea mays); assay: as above; conditions: Zea mays, 240 h, 0 to 100 scale (0 no effect, 100 complete control), approx. 10 d; for Corn plant response rating (crop injury, 0 = no effect, 100 = complete kill) at 125 g/ha: 125 g ai/ha; for Corn plant response rating (crop injury, 0 = no effect, 100 = complete kill) at 500 g/ha: 500 g ai/ha
In short: as §1

[6] = tested on: morningglory (Ipomoea spp.); assay: as above; conditions: Ipomoea, 240 h, 0 to 100 scale (0 no effect, 100 complete control), approx. 10 d, read-out: Plant response rating, Morningglory; for pest or weed control at 125 g/ha: 125 g ai/ha; for pest or weed control at 500 g/ha: 500 g ai/ha
In short: as §1

[7] = tested on: foxtail, giant (giant foxtail, Setaria faberii); assay: as above; conditions: Setaria faberi, 240 h, 0 to 100 scale (0 no effect, 100 complete control), approx. 10 d, read-out: Plant response rating, Foxtail, Giant; for pest or weed control at 125 g/ha: 125 g ai/ha; for pest or weed control at 500 g/ha: 500 g ai/ha
In short: as §1

[8] = tested on: pigweed (Amaranthus retroflexus); assay: as above; conditions: Amaranthus retroflexus, 240 h, 0 to 100 scale (0 no effect, 100 complete control), approx. 10 d, read-out: Plant response rating, Pigweed; for pest or weed control at 125 g/ha: 125 g ai/ha; for pest or weed control at 500 g/ha: 500 g ai/ha
In short: as §1

[9] = tested on: rice (Oryza sativa); assay: Test B flooded paddy test; conditions: Oryza sativa, 312 h; Flood, 125 g ai/ha; scale of 0 to 100, 0 is no effect, 100 is complete control; 13 to 15 d; read-out: Plant response rating, Rice
In short: (§2)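 Seedlings at 2 leaves are flooded to 3 cm, compound is added to the water, and that level is kept for the whole test. Plants stay in the greenhouse 13 to 15 d before visual comparison with controls, scored 0–100 where 100 means complete control.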

[10] = tested on: sedge, umbrella (small-flower umbrella sedge, Cyperus difformis); assay: Test B flooded paddy test; conditions: Cyperus difformis, 312 h; Flood, 125 g ai/ha; scale of 0 to 100, 0 is no effect, 100 is complete control; 13 to 15 d; read-out: Plant response rating, Sedge, Umbrella
In short: as §2

[11] = tested on: barnyardgrass (Echinochloa crus-galli); assay: Test B flooded paddy test; conditions: Echinochloa crus-galli, 312 h; Flood, 125 g ai/ha; scale of 0 to 100, 0 is no effect, 100 is complete control; 13 to 15 d; read-out: Plant response rating, Barnyardgrass
In short: as §2

[12] = tested on: ducksalad (Heteranthera limosa); assay: Test B flooded paddy test; conditions: Heteranthera limosa, 312 h; Flood, 125 g ai/ha; scale of 0 to 100, 0 is no effect, 100 is complete control; 13 to 15 d; read-out: Plant response rating, Ducksalad
In short: as §2

Structure (SMILES): Cc1cc(Oc2ccnc(C(F)(F)F)c2)nn(-c2ccc(C(F)(F)F)cc2)c1=O [Compound 6, 4-methyl-2-[4-(trifluoromethyl)phenyl]-6-[[2-(trifluoromethyl)-4-pyridinyl]oxy]-3(2H)-pyridazinone]
- pest or weed control at 125 g/ha ([1]; post-emergence, Postemergence): 100%
- pest or weed control at 500 g/ha ([1]; post-emergence, Postemergence): 100%
- pest or weed control at 125 g/ha ([1]; pre-emergence, Preemergence): 70%
- pest or weed control at 500 g/ha ([1]; pre-emergence, Preemergence): 80%
- pest or weed control at 125 g/ha ([2]; post-emergence, Postemergence): 80%
- pest or weed control at 500 g/ha ([2]; post-emergence, Postemergence): 90%
- pest or weed control at 125 g/ha ([2]; pre-emergence, Preemergence): 100%
- pest or weed control at 500 g/ha ([2]; pre-emergence, Preemergence): 100%
- plant injury at 125 g/ha ([3]; post-emergence, Postemergence): 40%
- plant injury at 500 g/ha ([3]; post-emergence, Postemergence): 50%
- plant injury at 125 g/ha ([3]; pre-emergence, Preemergence): 10%
- plant injury at 500 g/ha ([3]; pre-emergence, Preemergence): 30%
- pest or weed control at 125 g/ha ([4]; post-emergence, Postemergence): 50%
- pest or weed control at 500 g/ha ([4]; post-emergence, Postemergence): 90%
- pest or weed control at 125 g/ha ([4]; pre-emergence, Preemergence): 40%
- pest or weed control at 500 g/ha ([4]; pre-emergence, Preemergence): 80%
- Corn plant response rating (crop injury, 0 = no effect, 100 = complete kill) at 125 g/ha ([5]; post-emergence, Postemergence): 40%
- Corn plant response rating (crop injury, 0 = no effect, 100 = complete kill) at 500 g/ha ([5]; post-emergence, Postemergence): 50%
- Corn plant response rating (crop injury, 0 = no effect, 100 = complete kill) at 125 g/ha ([5]; pre-emergence, Preemergence): 10%
- Corn plant response rating (crop injury, 0 = no effect, 100 = complete kill) at 500 g/ha ([5]; pre-emergence, Preemergence): 20%
- pest or weed control at 125 g/ha ([6]; post-emergence, Postemergence): 80%
- pest or weed control at 500 g/ha ([6]; post-emergence, Postemergence): 100%
- pest or weed control at 125 g/ha ([6]; pre-emergence, Preemergence): 80%
- pest or weed control at 500 g/ha ([6]; pre-emergence, Preemergence): 90%
- pest or weed control at 125 g/ha ([7]; post-emergence, Postemergence): 80%
- pest or weed control at 500 g/ha ([7]; post-emergence, Postemergence): 100%
- pest or weed control at 125 g/ha ([7]; pre-emergence, Preemergence): 100%
- pest or weed control at 500 g/ha ([7]; pre-emergence, Preemergence): 100%
- pest or weed control at 125 g/ha ([8]; post-emergence, Postemergence): 100%
- pest or weed control at 500 g/ha ([8]; post-emergence, Postemergence): 100%
- pest or weed control at 125 g/ha ([8]; pre-emergence, Preemergence): 100%
- pest or weed control at 500 g/ha ([8]; pre-emergence, Preemergence): 100%
- plant injury at 125 g/ha [9]: 0%
- pest or weed control at 125 g/ha [10]: 0%
- pest or weed control at 125 g/ha [11]: 0%
- pest or weed control at 125 g/ha [12]: 0%

Structure (SMILES): Cc1cc(=O)n(-c2ccc(C(F)(F)F)cc2)nc1Oc1ccnc(C(F)(F)F)c1 [Compound 5, 5-methyl-2-[4-(trifluoromethyl)phenyl]-6-[[2-(trifluoromethyl)-4-pyridinyl]oxy]-3(2H)-pyridazinone]
- pest or weed control at 125 g/ha ([1]; post-emergence, Postemergence): 70%
- pest or weed control at 500 g/ha ([1]; post-emergence, Postemergence): 100%
- pest or weed control at 125 g/ha ([1]; pre-emergence, Preemergence): 20%
- pest or weed control at 500 g/ha ([1]; pre-emergence, Preemergence): 100%
- pest or weed control at 125 g/ha ([2]; post-emergence, Postemergence): 50%
- pest or weed control at 500 g/ha ([2]; post-emergence, Postemergence): 80%
- pest or weed control at 125 g/ha ([2]; pre-emergence, Preemergence): 100%
- pest or weed control at 500 g/ha ([2]; pre-emergence, Preemergence): 100%
- plant injury at 125 g/ha ([3]; post-emergence, Postemergence): 30%
- plant injury at 500 g/ha ([3]; post-emergence, Postemergence): 40%
- plant injury at 125 g/ha ([3]; pre-emergence, Preemergence): 0%
- plant injury at 500 g/ha ([3]; pre-emergence, Preemergence): 10%
- pest or weed control at 125 g/ha ([4]; post-emergence, Postemergence): 20%
- pest or weed control at 500 g/ha ([4]; post-emergence, Postemergence): 70%
- pest or weed control at 125 g/ha ([4]; pre-emergence, Preemergence): 40%
- pest or weed control at 500 g/ha ([4]; pre-emergence, Preemergence): 90%
- Corn plant response rating (crop injury, 0 = no effect, 100 = complete kill) at 125 g/ha ([5]; post-emergence, Postemergence): 20%
- Corn plant response rating (crop injury, 0 = no effect, 100 = complete kill) at 500 g/ha ([5]; post-emergence, Postemergence): 30%
- Corn plant response rating (crop injury, 0 = no effect, 100 = complete kill) at 125 g/ha ([5]; pre-emergence, Preemergence): 0%
- Corn plant response rating (crop injury, 0 = no effect, 100 = complete kill) at 500 g/ha ([5]; pre-emergence, Preemergence): 10%
- pest or weed control at 125 g/ha ([6]; post-emergence, Postemergence): 60%
- pest or weed control at 500 g/ha ([6]; post-emergence, Postemergence): 100%
- pest or weed control at 125 g/ha ([6]; pre-emergence, Preemergence): 60%
- pest or weed control at 500 g/ha ([6]; pre-emergence, Preemergence): 80%
- pest or weed control at 125 g/ha ([7]; post-emergence, Postemergence): 60%
- pest or weed control at 500 g/ha ([7]; post-emergence, Postemergence): 90%
- pest or weed control at 125 g/ha ([7]; pre-emergence, Preemergence): 90%
- pest or weed control at 500 g/ha ([7]; pre-emergence, Preemergence): 100%
- pest or weed control at 125 g/ha ([8]; post-emergence, Postemergence): 100%
- pest or weed control at 500 g/ha ([8]; post-emergence, Postemergence): 100%
- pest or weed control at 125 g/ha ([8]; pre-emergence, Preemergence): 100%
- pest or weed control at 500 g/ha ([8]; pre-emergence, Preemergence): 100%
- plant injury at 125 g/ha [9]: 55%
- pest or weed control at 125 g/ha [10]: 80%
- pest or weed control at 125 g/ha [11]: 55%
- pest or weed control at 125 g/ha [12]: 75%
